Patent US8470340B2, “Peptides presenting an epitope of a domain of factor H binding protein and methods of use” (priority 2008, dated 2013)
Ends that are not written are not given here.

Assays:
JAR4 mAb [1] = test: […] of phage library clones; format: binding, murine; conditions: phage captured by anti-pIII mAb, JAR4 detection, absorbance at 405 nm
Procedure: —Ninety-six wells plates were coated o.n. at 4° C. with 100 μl per well of a rat anti-pili (coat protein III) monoclonal antibody (concentration 1 mg/ml) in 50 mM NaHC03, 0.02% (w/v) NaN3, pH 9.6, and washed 8 times with TBST (50 mM Tris/Cl, 150 mM NaCl, pH 7.5, 0.05% (v/v) TWEEN 20). One hundred μl per well of cleared phage supernatant was added. After washing as above and incubation with antibody (concentration 1 mg/ml) in blocking buffer (5% (w/v) non-fat dry milk, 0.05% TWEEN 20 in PBS), and washing, the binding of the monoclonal antibody was detected by alkaline-phosphatase conjugated goat anti-mouse IgG antibody (Sigma, dilution 1:5000) using p-nitrophenyl phosphate substrate tablets (Sigma).
(§1) In order to identify peptides useful in eliciting antibodies having the eptitope-binding properties of the JAR 4 mAb, libraries of filamentous bacteriophage containing random peptides (9-mers and 12-mers) fused to protein VIII were screened using the JAR 4 mAb as described above. Phage eluted in the final step were used to infect host bacteria, from which the phagemids were collected and the relevant DNA sequence amplified by PCR and sequenced to identify the peptides that interacted with JAR 4 mAb. The relative binding affinity of the peptide of the isolated phage was determined by both […] and […], as described above.

JAR4 mAb [2] = test: […] of phage library clones; format: binding, murine; conditions: JAR4 coated at 1 μg/ml, cleared phage supernatant, absorbance at 450 nm
Procedure: […]—Aliquots in 96 wells ELISA plates 100 μl per well of JAR4 mAb were diluted (1 μg/ml) in 50 mM NaHC03, 0.02% (w/v) NaN3, pH 9.6 and incubated 3 hrs at 37° C. or overnight at 4° C. After washing 8 times with 1×PBS containing 0.05% (v/v) TWEEN 20), 200 μl of blocking buffer (PBS, 0.05% TWEEN 20, 5% non-fat dry milk) was added and incubated for 1 hr at 37° C. The wash was discarded and a mixture of 100 μl cleared phage supernatant and 100 μl blocking buffer was added, to the plate and incubated for 3 hrs at 37° C. or overnight at 4° C. After washing 8 times with 1×PBS containing 0.05% (v/v) TWEEN 20), and anti-M13 peroxidase conjugate antibody (Amersham Biosciences, Buckinghamshire, UK) was added at a dilution of […] in blocking buffer (100 μl/well) and incubated for 1 h at 37° C. After further washing, antibody binding was detected by adding TMB substrate, incubated for 45 min at room temperature and stopped with […] of 1 M H2SO4 and reading absorbance at 450 nm.
as §1

anti-fHbp mAb JAR 4 = test: Direct binding ELISA of mAb to KLH-conjugated peptides; set-up: species or system murine; conditions: for mAb Reactivity JAR 4: KLH-conjugated peptide coated at 2 μg/ml; for reactivity with JAR 4 by ELISA: KLH-conjugated peptides, in words
Procedure: (§2) The ability of anti-fHbp mAb JAR 4 to bind to the KLH-conjugated peptides was determined by a direct binding ELISA. ELISA plates were coated with 100 μl per well of a 2 μg/ml (peptide concentration) solution at 4° C. overnight. The following morning, the plates were washed and then blocked with PBS containing 1% BSA. The plates were washed and incubated with serial dilutions of mAb JAR 4 or, as a control, anti-fHbp JAR 5 or anti-PorA P1.2 mAb. After incubation (1 hour at room temperature), the plates were washed and incubated with anti-mouse IgG conjugated either with alkaline phosphatase or IRDye 800CW (1:1000). The alkaline phosphatase was detected at 420 nm wavelength after 30 min incubation with phosphatase substrate (1 mg/ml) and the IRDye was detected at 800 nm wavelength.

anti-fHbp JAR 5 = test: as above; set-up: species or system murine; conditions: for mAb Reactivity JAR 5: KLH-conjugated peptide coated at 2 μg/ml; for binding to control mAb anti-fHbp JAR 5: KLH-conjugated peptides, in words
Procedure: as §2

anti-PorA P1.2 mAb = test: as above; conditions: KLH-conjugated peptide coated at 2 μg/ml
Procedure: as §2

JAR 4 = test: ELISA binding of mAb to site-specific mutant recombinant v.1 fHbp; set-up: species or system murine; conditions: v.1 fHbp (gene from MC58) alanine mutants
Procedure: Site-specific mutagenesis was used to test the role of amino acid residues involved in the JAR 4 anti-fHbp mAb epitope. Mutagenesis was performed using the QuikChange II kit (Stratagene) using 10 ng of plasmid template and the manufacturer's protocols. For testing residues putatively involved in mAb epitopes, mutagenesis reactions were performed on pET21-based plasmids encoding a wild-type fHbp gene. Site-specific mutagenesis was used to introduce the H26A and K27A substitution into the pET21 plasmid encoding v.1 fHbp from MC58. Mutant fHbp genes were confirmed by DNA sequencing as described for the wild-type plasmids, above.
Site-directed mutagenesis of residues 25, 26 and 27 was performed, each of which was individually changed to alanine in fHbp from the v.1 group (gene from MC58). These mutants were created using the non-signal containing sequence from strain MC58 (MVAAD . . . GLAAKQ) (SEQ ID NO:73), and are referred to as D25A, H26A and K27A, respectively. The amino acid sequences of the portions of the A domains of these mutants is provided in FIG. 7, Panel A. Results of the binding experiment between mutated fHbp and the various JAR mAbs are shown in FIG. 6.

Molecule | SEPHELISA (JAR4 mAb [1]) | PHAGELISA (JAR4 mAb [2]) | other results
1 (HDHKLEGTE) [Clone 1] | ++++ (O.D. from 2 to 3.5) | +++ (O.D. from 1 to 2) | 
2 (CGGVYDDKTGCA) [Clone 2] | ++++ (O.D. from 2 to 3.5) | ++ (O.D. from 0.5 to 1) | 
3 (HDHKTQLDP) [Clone 3] | ++++ (O.D. from 2 to 3.5) | ++++ (O.D. from 2 to 3.5) | 
4 (WTLAVFDHKAQT) [Clone 4] | +++ (O.D. from 1 to 2) | +++ (O.D. from 1 to 2) | 
5 (GCMGYDHRSGCV) [Clone 5] | ++ (O.D. from 0.5 to 1) | + (O.D. from 0.15 to 0.5) | 
6 (FHDHKTANQ) [Clone 6] | ++ (O.D. from 0.5 to 1) | + (O.D. from 0.15 to 0.5) | 
7 (WRWCGFERCPEG) [Clone 7] | ++ (O.D. from 0.5 to 1) | + (O.D. from 0.15 to 0.5) | 
8 (HDHRIWPLDVTA) [Clone 8] | ++ (O.D. from 0.5 to 1) | + (O.D. from 0.15 to 0.5) | 
9 (NDERQMSDWYRA) [Clone 9] | + (O.D. from 0.15 to 0.5) | + (O.D. from 0.15 to 0.5) | 
10 (HVHRGSQGGQRQ) [Clone 10] | + (O.D. from 0.15 to 0.5) | + (O.D. from 0.15 to 0.5) | 
11 (LEWCGFSRCEVG) [Clone 11] | + (O.D. from 0.15 to 0.5) | + (O.D. from 0.15 to 0.5) | 
12 (KDHRHMLWPEES) [Clone 12] | + (O.D. from 0.15 to 0.5) | + (O.D. from 0.15 to 0.5) | 
13 (LCQERLSQRCGV) [Clone 13] | + (O.D. from 0.15 to 0.5) | + (O.D. from 0.15 to 0.5) | 
14 (WVLCGQGCGGTA) [Clone 14] | + (O.D. from 0.15 to 0.5) | + (O.D. from 0.15 to 0.5) | 
15 (RCQVQVMVLCAL) [Clone 15] | + (O.D. from 0.15 to 0.5) | + (O.D. from 0.15 to 0.5) | 
16 (HDHKHGFQEPAS) [Clone 16] | + (O.D. from 0.15 to 0.5) | + (O.D. from 0.15 to 0.5) | 
17 (SDWGWGGRAEQH) [Clone 17] | + (O.D. from 0.15 to 0.5) | + (O.D. from 0.15 to 0.5) | 
18 (VGWCGFERCSSA) [Clone 18] | + (O.D. from 0.15 to 0.5) | + (O.D. from 0.15 to 0.5) | 
AEGEFHDHKLEGTEDPAKC (also: conjugated to KLH) [JAR 4 Phage 3, synthetic peptide conjugated to keyhole limpet hemocyanin (KLH)] |  |  | mAb Reactivity JAR 4 (anti-fHbp mAb JAR 4): + (50% of maximal binding at 1-10 μg/ml); reactivity with JAR 4 by ELISA (anti-fHbp mAb JAR 4): reacted; mAb Reactivity JAR 5 (anti-fHbp JAR 5): − (no detectable binding at 50 μg/ml); binding to control mAb anti-fHbp JAR 5 (anti-fHbp JAR 5): no detectable binding
AEGEFHDHKTQLDPDPAKC (also: conjugated to KLH) [JAR 4 Phage 1, synthetic peptide conjugated to keyhole limpet hemocyanin (KLH)] |  |  | mAb Reactivity P1.2 (anti-PorA P1.2 mAb): − (no detectable binding at 50 μg/ml); mAb Reactivity JAR 4 (anti-fHbp mAb JAR 4): ++ (50% of maximal binding at < 1 μg/ml); reactivity with JAR 4 by ELISA (anti-fHbp mAb JAR 4): reacted; mAb Reactivity JAR 5 (anti-fHbp JAR 5): − (no detectable binding at 50 μg/ml); binding to control mAb anti-fHbp JAR 5 (anti-fHbp JAR 5): no detectable binding
AEGEFWTLAVFDHKAQTGDPAKC (also: conjugated to KLH) [JAR 4 Phage 2, synthetic peptide conjugated to keyhole limpet hemocyanin (KLH)] |  |  | mAb Reactivity P1.2 (anti-PorA P1.2 mAb): − (no detectable binding at 50 μg/ml); mAb Reactivity JAR 4 (anti-fHbp mAb JAR 4): ++ (50% of maximal binding at < 1 μg/ml); reactivity with JAR 4 by ELISA (anti-fHbp mAb JAR 4): reacted
ALTAPLDHKDKGLQSDPAKC (also: conjugated to KLH) [JAR 4 Native, reference compound] |  |  | mAb Reactivity JAR 4 (anti-fHbp mAb JAR 4): − (no detectable binding at 50 μg/ml); mAb Reactivity JAR 5 (anti-fHbp JAR 5): − (no detectable binding at 50 μg/ml)
AQAFQTPVHSDPAKC (also: conjugated to KLH) [GNA 33, control peptide, a mimetic of PorA P1.2, conjugated to KLH, reference compound] |  |  | mAb Reactivity P1.2 (anti-PorA P1.2 mAb): + (50% of maximal binding at 1-10 μg/ml); mAb Reactivity JAR 4 (anti-fHbp mAb JAR 4): − (no detectable binding at 50 μg/ml)
HFVQQTPQSQDPAKC (also: conjugated to KLH) [PorA P1.2, control peptide derived from loop 4 of PorA VR2, strain 2996, conjugated to KLH, reference compound] |  |  | mAb Reactivity P1.2 (anti-PorA P1.2 mAb): + (50% of maximal binding at 1-10 μg/ml); mAb Reactivity JAR 4 (anti-fHbp mAb JAR 4): − (no detectable binding at 50 μg/ml)
TKDDPLKQHLALSAGDPAKC (also: conjugated to KLH) [JAR 4 Scrambled, scrambled native fHbp peptide, negative control, conjugated to KLH, reference compound] |  |  | mAb Reactivity P1.2 (anti-PorA P1.2 mAb): − (no detectable binding at 50 μg/ml); mAb Reactivity JAR 4 (anti-fHbp mAb JAR 4): − (no detectable binding at 50 μg/ml); mAb Reactivity JAR 5 (anti-fHbp JAR 5): − (no detectable binding at 50 μg/ml)
D25A: recombinant v.1 fHbp (gene from MC58) with residue 25 changed to alanine (protein) CSSGGGGVAADIGAGLADALTAPLAHKDKGLQSLTLDQSVRKNEKLKLAAQGAEKTYGNGDSLNTGKLKNDKVSRFDFIRQIEVDGQLITLESGEFQVYKQSHSALTAFQTEQIQDSEHSGKMVAKRQFRIGDIAGEHTSFDKLPEGGRATYRGTAFGSDDAGGKLTYTIDFAAKQGNGKIEHLKSPELNVDLAAADIKPDGKRHAVISGSVLYNQAEKGSYSLGIFGGKAQEVAGSAEVKTVNGIRHIGLAAKQHHHHHH |  |  | decrease in JAR 4-reactivity compared with wild-type recombinant fHbp (JAR 4): approximately 1000 fold
H26A: recombinant v.1 fHbp (gene from MC58) with residue 26 changed to alanine (protein) CSSGGGGVAADIGAGLADALTAPLDAKDKGLQSLTLDQSVRKNEKLKLAAQGAEKTYGNGDSLNTGKLKNDKVSRFDFIRQIEVDGQLITLESGEFQVYKQSHSALTAFQTEQIQDSEHSGKMVAKRQFRIGDIAGEHTSFDKLPEGGRATYRGTAFGSDDAGGKLTYTIDFAAKQGNGKIEHLKSPELNVDLAAADIKPDGKRHAVISGSVLYNQAEKGSYSLGIFGGKAQEVAGSAEVKTVNGIRHIGLAAKQHHHHHH |  |  | decrease in JAR 4-reactivity compared with wild-type recombinant fHbp (JAR 4): approximately 10 fold
